# Patent US11104703B2, “Binding compound and uses thereof” (priority 2016, dated 2021)
# pKi: −log10 of the molar value. Numbered stars: 1 amine (or outer) side, 2 acyl side, 3 side chain; on linkers, the order of the positions; unused ones are H or OH. Square brackets hold non-standard residues; d marks the D form. Side chains are listed from the residue outwards. Peptide text beside a SMILES is read from it. * marks the point of attachment. Biotin = O=C1N[C@H]2[C@H](CS[C@H]2CCCCC(=O)*)N1; Gly(N-(CH2)3-guanidino) = N=C(N)NCCCNCC(=O)O; Glutaryl = O=C(CCCC(=O)[*:2])[*:1]; X2 = O=C(Oc1c(F)c(F)c(F)c(F)c1F)*; X1 = O=C1CCC(=O)N1OC(=O)*; X3 = C#Cc1cccc(N*)c1; Ahx = NCCCCCC(=O)O
# Experiments:
# Trypsin = details: for pKi / k3 / k3/Ki: Trypsin; for pKi: PBS pH 7.4, 37° C., Cbz-Gly-Gly-Arg-NHMec 50 μM; for pKi / k3/Ki: Mean (±SD); for k3: first-order rate constant, mean; for k3/Ki: overall second-order rate constant; for over all second-order rate constant: trypsin
# Description: (§1) The ability of compounds of the invention to inhibit the activities of a range of commercially sourced proteases was assessed using steady state fluorogenic substrate assays. […] Assays were carried out in PBS, pH 7.4, at 37° C., in the presence of varying concentrations of inhibitor (10-50 μM) and a fixed concentration of substrate (50 μM). […] In this mechanism, the inhibitor I, binds the target protease to form an initial reversible complex EI, characterised by the inhibitor constant Ki. This is followed by the formation of an irreversible complex E-I from EI, characterised by the first-order rate constant k3.
# ENaC = assay type: cell-based
# Description: All determinations were conducted using a TECC24 semiautomated system. Unlike the traditional Ussing chamber assays, where the short circuit current (ISC) is measured as an index of CFTR correction, the TECC-24 assay measures the equivalent current (IEQ).
# Chymotrypsin = assay: Steady state fluorogenic substrate assay, inactivation of chymotrypsin; details: for k3: mean; for second-order rate constant: chymotrypsin
# Description: as §1
# Plasmin = Plasmin (Homo sapiens, UniProt P00747); assay: Steady state fluorogenic substrate assay, inactivation of plasmin
# Description: as §1
# [1] = test system: trypsin-like serine proteases in CF Sol; details: 10 μM; pooled CF sputum sol diluted ×4; substrate Cbz-Gly-Gly-Arg-AMC; 37° C.
# Description: Briefly, the spectrofluorimetic analysis was conducted on a sample of pooled supernatant recovered by centrifugation from expectorated cystic fibrosis sputum, which had been diluted ×4 with phosphate-buffered saline (sputum sol). […] The rate of hydrolysis of the substrate at 37° C. was monitored and inhibition as a % of an untreated control calculated.
# [2] = test system: primary CF Airway Epithelial Cells (AECs); details: 50 μM, 24 hours, n=3, vehicle control 3.5
# Description: Mucociliary clearance was quantified by measuring the velocity of microbeads apically applied to differentiated primary CF Airway Epithelial Cells (AECs). Compounds (50 μM) were added to the apical surface of primary CF AECs for a period of 24 hours. Mucociliary flow was then determined by tracking and measuring the velocity of apically applied microbeads across the CF AEC surface.
# [3] = biological target: Human Airways Trypsin-like protease (HAT) (Homo sapiens, UniProt O60235); details: for k3/Ki: Mean (±SD); for k3: mean
# Description: as §1
# Matriptase = Matriptase (Homo sapiens, UniProt Q9Y5Y6); details: for k3/Ki: Mean (±SD); for k3: mean
# Description: as §1
# [4] = test system: endogenous protease activities in CF sputum sol; details: CF sputum sol from 8 individual CF patients; Boc-Gln-Ala-Arg-AMC 50 μM
# Description: (§2) Inhibition of endogenous protease activities in CF sputum sol, was conducted as for Example 8 but in the presence of Boc-Gln-Ala-Arg-AMC (50 μM) as substrate. The rate of hydrolysis of the substrate at 37° C. was monitored and residual activity determined.
# [5] = test system: primary human airway epithelial (HAE) cell cultures; details: 10 μM, Boc-QAR-AMC 50 μM, 37° C.
# Description: as §2
# Thrombin = Thrombin (Homo sapiens, UniProt P00734)
# Description: as §1
# Sequence of Plasmin (P00747 97-810, species assumed): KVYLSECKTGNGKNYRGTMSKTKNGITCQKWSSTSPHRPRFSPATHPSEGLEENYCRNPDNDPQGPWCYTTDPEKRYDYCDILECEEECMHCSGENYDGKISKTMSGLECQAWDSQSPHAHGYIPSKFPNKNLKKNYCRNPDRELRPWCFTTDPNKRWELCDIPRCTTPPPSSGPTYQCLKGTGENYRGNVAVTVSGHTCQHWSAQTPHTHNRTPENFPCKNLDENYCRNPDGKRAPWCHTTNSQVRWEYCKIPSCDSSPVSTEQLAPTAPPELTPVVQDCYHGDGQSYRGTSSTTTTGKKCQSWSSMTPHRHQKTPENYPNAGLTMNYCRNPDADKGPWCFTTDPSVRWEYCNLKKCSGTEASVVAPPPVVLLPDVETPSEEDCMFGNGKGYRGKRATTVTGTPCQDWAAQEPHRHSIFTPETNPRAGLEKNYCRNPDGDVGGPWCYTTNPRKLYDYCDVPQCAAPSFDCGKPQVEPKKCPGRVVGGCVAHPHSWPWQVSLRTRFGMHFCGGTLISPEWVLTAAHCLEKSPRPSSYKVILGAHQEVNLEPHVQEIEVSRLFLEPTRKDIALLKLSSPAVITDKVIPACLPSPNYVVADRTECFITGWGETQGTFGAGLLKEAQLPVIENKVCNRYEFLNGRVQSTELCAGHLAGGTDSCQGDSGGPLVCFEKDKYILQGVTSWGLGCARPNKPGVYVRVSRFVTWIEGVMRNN
# Sequence of Matriptase (Q9Y5Y6 whole entry, species assumed): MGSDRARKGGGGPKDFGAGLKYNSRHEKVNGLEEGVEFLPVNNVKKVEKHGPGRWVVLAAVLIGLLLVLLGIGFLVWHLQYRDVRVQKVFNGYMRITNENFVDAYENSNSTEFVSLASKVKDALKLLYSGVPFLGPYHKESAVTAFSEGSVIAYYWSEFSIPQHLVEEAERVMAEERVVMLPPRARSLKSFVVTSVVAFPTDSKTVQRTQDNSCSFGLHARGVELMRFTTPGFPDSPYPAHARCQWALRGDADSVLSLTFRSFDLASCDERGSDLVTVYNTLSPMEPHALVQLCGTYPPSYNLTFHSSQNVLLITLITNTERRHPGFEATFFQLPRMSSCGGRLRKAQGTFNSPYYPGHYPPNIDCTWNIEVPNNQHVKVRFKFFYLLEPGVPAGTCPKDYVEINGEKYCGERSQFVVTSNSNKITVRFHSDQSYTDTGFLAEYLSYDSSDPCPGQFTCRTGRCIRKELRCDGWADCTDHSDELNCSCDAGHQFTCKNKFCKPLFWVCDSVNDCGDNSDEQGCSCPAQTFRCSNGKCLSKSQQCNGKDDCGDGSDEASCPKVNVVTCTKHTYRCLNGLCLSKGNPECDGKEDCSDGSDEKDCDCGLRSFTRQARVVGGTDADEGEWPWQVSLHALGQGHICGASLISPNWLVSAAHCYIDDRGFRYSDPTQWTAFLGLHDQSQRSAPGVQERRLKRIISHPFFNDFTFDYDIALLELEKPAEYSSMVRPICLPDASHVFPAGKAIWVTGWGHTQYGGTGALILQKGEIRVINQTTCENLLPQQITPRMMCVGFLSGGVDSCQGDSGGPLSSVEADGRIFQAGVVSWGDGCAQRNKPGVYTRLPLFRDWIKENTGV
# Sequence of Human Airways Trypsin-like protease (HAT) (O60235 whole entry): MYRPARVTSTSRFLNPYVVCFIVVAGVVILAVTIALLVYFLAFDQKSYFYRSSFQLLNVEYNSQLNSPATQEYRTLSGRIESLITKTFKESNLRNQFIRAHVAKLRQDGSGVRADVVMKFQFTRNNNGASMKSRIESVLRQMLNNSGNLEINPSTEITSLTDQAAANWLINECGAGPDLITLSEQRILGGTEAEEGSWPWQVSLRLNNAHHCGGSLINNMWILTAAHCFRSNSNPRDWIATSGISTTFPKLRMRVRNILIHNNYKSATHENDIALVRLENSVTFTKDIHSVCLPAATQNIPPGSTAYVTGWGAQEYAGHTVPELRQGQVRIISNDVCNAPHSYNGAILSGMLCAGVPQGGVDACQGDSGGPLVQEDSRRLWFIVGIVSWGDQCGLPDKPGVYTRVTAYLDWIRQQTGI
compound,measurement,setting,value
"C#Cc1cccc(NC(=O)CCCC(=O)NCCCC[C@H](NC(=O)CCCCCNC(=O)CNC(=O)CNC(=O)CN(CCCNC(=N)N)C(=O)ON2C(=O)CCC2=O)C(=O)O)c1 [NAP884, N-6-(1-acetylene-3-amino-phenyl)-di-carboxy-pentane-Lys-NH-Ahx-Gly-Gly-N-(n-guanidino-propyl)-glycine succinimidyl carbamate] (X1-[Gly(N-(CH2)3-guanidino)]GG[Ahx]K([Glutaryl-X3])-OH)",pKi,Trypsin,6.38
same,k3,Trypsin,0.528 min⁻¹
same,k3/Ki,Trypsin,1.34 (±0.351) × 10^6 M^−1 min^−1
"N=C(N)NCCCN(CC(=O)NCC(=O)NCC(=O)NCCCCCC(=O)N[C@@H](CCCCNC(=O)CCCC[C@@H]1SC[C@@H]2NC(=O)N[C@@H]21)C(=O)O)C(=O)ON1C(=O)CCC1=O [NAP897, HO-Lys(Biotin)-Ahx-Gly-Gly-N-(n-guanidino-propyl)-glycine succinimidyl carbamate] (X1-[Gly(N-(CH2)3-guanidino)]GG[Ahx]K(Biotin)-OH)",pKi,Trypsin,6.18
same,k3,Trypsin,0.7 min⁻¹
same,k3/Ki,Trypsin,1.3 (±0.4) × 10^6 M^−1 min^−1
"N=C(N)NCCCN(CC(=O)NCC(=O)NCC(=O)NCCCCCC(=O)N[C@@H](CCCCNC(=O)CCCC[C@@H]1SC[C@@H]2NC(=O)N[C@@H]21)C(=O)O)C(=O)Oc1c(F)c(F)c(F)c(F)c1F [NAP966, HO-Lys(biotin)-Ahx-Gly-Gly-N-(n-guanidino-propyl)-glycine pentafluorophenyl carbamate] (X2-[Gly(N-(CH2)3-guanidino)]GG[Ahx]K(Biotin)-OH)",pKi,Trypsin,5.68
same,k3,Trypsin,0.4 min⁻¹
same,k3/Ki,Trypsin,1.9 (±0.25) × 10^5 M^−1 min^−1
"N=C(N)NC(=O)c1nc(Cl)c(N)nc1N [amiloride, reference compound]",inhibition of the observable current,"ENaC; 10 μM, added to terminate the experiment, ENaC-expressing FRT cells",> 95%
Biotin-PEG-NH-Gly-Gly-N-(benzyl)-glycine succinimidyl carbamate [NFP849],k3/Ki,"Chymotrypsin; Chymotrypsin, Mean (±SD)",1.3 (±0.4) × 10^6 M^−1 min^−1
same,pKi,"Chymotrypsin; Chymotrypsin, Suc-Ala-Ala-Pro-Phe-NHMec 50 μM, Mean (±SD)",6.05
same,k3,Chymotrypsin; Chymotrypsin,0.8 min⁻¹
same,second-order rate constant,Chymotrypsin,1.28 (±0.442)×10^6 M^−1·min^−1
Biotin-PEG-NH-Gly-Gly-N-(n-amino-butyl)-glycine succinimidyl carbamate [NKP830],pKi,"Plasmin; Boc-Val-Leu-Lys-NHMec 50 μM, Mean (±SD)",5.14
same,k3/Ki,Plasmin; Mean (±SD),6.2 (±0.9) × 10^4 M^−1 min^−1
same,k3,Plasmin; mean,0.4 min⁻¹
same,pKi,Trypsin,6.66
same,k3,Trypsin,0.5 min⁻¹
same,k3/Ki,Trypsin,2.7 (±0.5) × 10^6 M^−1 min^−1
same,over all second-order rate constant,Trypsin,2.74 (±0.547)×10^6 M^−1·min^−1
Biotin-PEG-NH-Gly-Gly-N-(n-guanidino-propyl)-glycine succinimidyl carbamate [NAP858],inhibition of hydrolytic action of trypsin-like serine proteases in CF Sol,[1],complete inhibition
same,mucociliary clearance (velocity of apically applied microbeads),[2],6.83 μm/s
same,k3/Ki,[3],1.50 (±1.76) × 10^6 M^−1 min^−1
same,k3,[3],0.464 min⁻¹
same,k3/Ki,Matriptase,1.30 (±0.943) × 10^6 M^−1 min^−1
same,k3,Matriptase,0.314 min⁻¹
same,ENaC activity (reduction of current),"ENaC; 50 μM, primary CF cultures, over a 90 minute period",36 μA/cm2
same,pKi,Trypsin,6.31
same,k3,Trypsin,0.299 min⁻¹
same,k3/Ki,Trypsin,1.95 (±2.62) × 10^6 M^−1 min^−1
same,over all second-order rate constant,Trypsin,2.60 (±0.884)×10^6 M^−1·min^−1
same,"inhibition of endogenous protease activity, residual activity compared with QUB-TL1",[4],superior to QUB-TL1
same,extracellular tryptic activity,[5],reduced extracellular tryptic activity to a similar degree as that of QUB-TL1
Biotin-PEG-NH—(N-benzyl-glycyl)-(D)-phenylalanyl-N-(n-guanidino-propyl)-glycine succinimidyl carbamate [NAT988],k3/Ki,Thrombin; Mean (±SD),4.7 (± 1.1) × 10^5 M^−1 min^−1
same,k3,Thrombin; mean,0.4 min⁻¹
Biotin-PEG-NH—(N-methyl glycyl)-(N-methyl glycyl)-N-(benzyl)-glycine succinimidyl carbamate [CG877],k3,Chymotrypsin; Chymotrypsin,0.7 min⁻¹
same,second-order rate constant,Chymotrypsin,2.46 (±0.214)×10^5 M^−1·min^−1
Biotin-PEG-NH—N-(n-guanidino-propyl)-glycine-Gln-Sar-N-(n-guanidino-propyl)-glycine succinimidyl carbamate [NAP1099],k3/Ki,[3],3.71 (±2.89) × 10^6 M^−1 min^−1
same,k3,[3],0.474 min⁻¹
same,k3/Ki,Matriptase,8.52 (±9.05) × 10^6 M^−1 min^−1
same,k3,Matriptase,0.302 min⁻¹
same,k3,Trypsin,0.354 min⁻¹
same,k3/Ki,Trypsin,3.80 (±3.16) × 10^6 M^−1 min^−1
same,"inhibition of endogenous protease activity, residual activity compared with QUB-TL1",[4],superior to QUB-TL1
same,extracellular tryptic activity,[5],reduced extracellular tryptic activity to a similar degree as that of QUB-TL1
